Measurements from article PMC7761830, “Structure-Based Virtual Screening of Ultra-Large Library Yields Potent Antagonists for a Lipid GPCR” (Biomolecules, 2020).
Changes are numbered by the printed parent chain. “And” between values parts separate entries of the source, which are not always exact repeats. Equal entries are not always repeated. Values belong to the compound of their own block, whether it stands above or below them.

Key:
[1] = biological target: T1, CysLT2R mutant L129Q (Homo sapiens, UniProt Q9NS75, L129Q); assay: IP1 production assay, constitutively active mutant, direct compound stimulation (inverse agonism); format: cell-based; conditions: HEK293 transiently expressing CysLT2R L129Q; for % max inhibition ± SEM of constitutive IP1 accumulation: WT non-stimulated = 0%, L129Q non-stimulated = 100%
T1 construct: expressed in transfected cells; host or cells: HEK293 (ATCC CRL-1573), transient transfection with Lipofectamine 3000
T1 sequence (Q9NS75 1-346 L129Q): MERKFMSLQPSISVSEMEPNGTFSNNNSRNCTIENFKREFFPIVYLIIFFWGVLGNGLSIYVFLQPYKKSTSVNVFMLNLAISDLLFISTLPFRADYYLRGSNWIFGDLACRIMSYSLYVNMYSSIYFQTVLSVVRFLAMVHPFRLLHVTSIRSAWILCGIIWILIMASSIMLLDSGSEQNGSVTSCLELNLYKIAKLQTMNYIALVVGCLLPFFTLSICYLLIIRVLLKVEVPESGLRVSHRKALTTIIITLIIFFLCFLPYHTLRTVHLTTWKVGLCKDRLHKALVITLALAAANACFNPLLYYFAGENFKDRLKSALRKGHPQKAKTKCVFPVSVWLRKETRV
Procedure: (§1) All 139 selected compounds were screened in a functional assay measuring IP1 production as an indicator of Gαq activation. For this assay, we used the Cisbio IP-One kit as previously described. Human Embryonic Kidney (HEK) 293 cells (ATCC CRL-1573) between passages 5 and 25 were seeded onto poly-L-Lysine-coated 384-well plates at 20,000 cells/well and transfected with 30 ng of cDNA coding for the wild-type CysLT1R or CysLT2R receptors or for the CysLT2R mutant L129Q, using the Lipofectamine 3000 (Thermo Fisher Scientific) transfection agent. At 48 h post-transfection, the media was removed and the cells were washed with fresh Hank’s Balanced Salt Solution (HBSS). […] First, all 139 selected compounds were screened at a 30 µM concentration in both the agonist and antagonist mode in cells transiently expressing the wildtype CysLT1R or CysLT2R receptors. […] For CysLT1R, the compounds retained were BRI-12328, BRI-12334, BRI-12359, BRI-12410, BRI-12411, BRI-12417, BRI-12424, BRI-12435, BRI-12450, and BRI-12458; for CysLT2R, these were BRI-12328, BRI-12334, BRI-12359, BRI-12401, BRI-12402, BRI-12405, BRI-12410, BRI-413, BRI-12417, BRI-12424, BRI-426, BRI-427, BRI-450, BRI-453, BRI-454, BRI-458, and BRI-466. These hits were again tested in the antagonist mode with compound concentrations ranging from 1.56 µM to 100 µM, at 2-fold concentration intervals. The three best hits (BRI-12359, BRI-417, and BRI-424) were also tested using the LTC4 ligand (EC80 concentration) and in cells transiently expressing the constitutively active CysLT2R mutant L129Q. […] After compound stimulation, the cells were incubated for 1 h at 37 °C and stimulated with IP1-D2 and Ab-Crypt reagents in Lysis Buffer. The cells were then incubated at room temperature for an additional hour. The plate was read on a Tecan Genios Pro plate reader using a HTRF (homogeneous time-resolved fluorescence) filter set (λex = 320 nm, λem = 620 and 655 nm). Normalized data were plotted using either the three-parameter or four-parameter EC50/IC50 fits of GraphPad Prism 8 (San Diego). […] Data represent the means ± SEM of at least three independent experiments performed in quadruplicate. For the additional antagonist experiments performed with BRI-12359, we performed Schild analysis in order to determine pA2 values.
This effect would be particularly interesting in the case of the L129Q CysLT2R mutant identified in uveal melanoma patients. We tested these three compounds in the functional IP1 assay using cells transiently expressing the L129Q CysLT2R mutant, directly stimulated with a range of compound concentrations (1.6 to 100 μM).

[2] = biological target: T2, wild-type CysLT1R (Homo sapiens, UniProt Q9Y271); assay: IP1 production assay, antagonist mode, LTC4 (EC80) as agonist; format: cell-based; conditions: HEK293, wild-type CysLT1R, LTC4 at EC80; for Ki: functional Ki by Cheng-Prusoff, read-out: CysLT1R (LTC4) Ki ± SEM
T2 construct: expressed in transfected cells; host or cells: HEK293 (ATCC CRL-1573), transient transfection with Lipofectamine 3000
T2 sequence (Q9Y271 1-337): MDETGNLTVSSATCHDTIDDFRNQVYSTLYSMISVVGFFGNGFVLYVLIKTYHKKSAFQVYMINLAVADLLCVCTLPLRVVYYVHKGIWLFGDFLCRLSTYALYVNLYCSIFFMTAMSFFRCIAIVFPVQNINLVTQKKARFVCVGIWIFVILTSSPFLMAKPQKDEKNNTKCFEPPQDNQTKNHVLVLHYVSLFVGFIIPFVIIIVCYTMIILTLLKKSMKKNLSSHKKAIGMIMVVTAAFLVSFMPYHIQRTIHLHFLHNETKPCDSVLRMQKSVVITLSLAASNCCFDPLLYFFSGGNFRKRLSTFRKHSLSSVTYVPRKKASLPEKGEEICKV
Procedure: as §1

[3] = biological target: T3, wild-type CysLT2R (Homo sapiens, UniProt Q9NS75); assay: as above; format: cell-based; conditions: HEK293, wild-type CysLT2R; LTC4 at EC80
T3 construct: expressed in transfected cells; host or cells: HEK293 (ATCC CRL-1573), transient transfection with Lipofectamine 3000
T3 sequence (Q9NS75 1-346): T1 sequence (Q9NS75 1-346 L129Q) with Q129L
Procedure: as §1

[4] = biological target: T2, wild-type CysLT1R; assay: IP1 production assay, antagonist mode, co-stimulation with EC80 LTD4; format: cell-based; conditions: for inhibition at 30 µM: HEK293, compound 30 µM, LTD4 at EC80, HEK293, wild-type CysLT1R, read-out: inhibition of LTD4-induced IP1 production, single-concentration screen; for Emax: HEK293, read-out: CysLT1R (LTD4) % Max Inhibition ± SEM; for extent of inhibition of LTD4-mediated response at CysLT1R (in words): antagonist mode, 1.5 to 100 µM
[5] = biological target: T3, wild-type CysLT2R; assay: as above; format: cell-based; conditions: for inhibition at 30 µM: HEK293, compound 30 µM, LTD4 at EC80, HEK293, wild-type CysLT2R, read-out: inhibition of LTD4-induced IP1 production, single-concentration screen; for Emax: HEK293, read-out: CysLT2R (LTD4) % Max Inhibition ± SEM
[6] = tested on: CysLT2R; conditions: cited from earlier work; for pAct: CysLT2R, ChEMBL value, ref 29 (ChEMBL)
[7] = tested on: CysLT1R; conditions: cited from earlier work; for pAct: CysLT1R, ChEMBL value, ref 29 (ChEMBL)

% max inhibition ± SEM of constitutive IP1 accumulation [1]: 59 ± 12%
IC50 ([1]; compound 1.6 to 100 μM, no agonist, read-out: IC50 ± SEM, inhibition of constitutive IP1 accumulation): 30000 to 40000 nM and 38000 nM
CysLT1R (LTC4) % Max Inhibition ± SEM [2]: 83 ± 14%
Ki [2]: 700 nM and 680 nM
CysLT2R (LTC4) % Max Inhibition ± SEM [3]: 32 ± 5%
Ki [4]: 3100 ± 630 nM
remaining activity at 30 µM [4]: 54.7%
inhibition at 30 µM [4]: ≥ 50%
Emax [4]: 100 ± 17%
extent of inhibition of LTD4-mediated response at CysLT1R (in words) [4]: completely inhibit
remaining activity at 30 µM [5]: 74.4%
inhibition at 30 µM [5]: < 50%
Emax [5]: 54 ± 6%
Compound: NC(=O)c1ccccc1Oc1ccc(NC(=O)c2ccc3nc(C(F)(F)F)cn3c2)cc1 [BRI-12417]

Compound: O=C(O)c1ccc(OCCCc2ccc(OCCCCOc3ccccc3)cc2)c(C(=O)NC2CCCC(C(=O)O)C2)c1 (stereo not drawn) [CHEMBL3342945]
IC50 ([6]; activity of the ligand from ChEMBL, ref ChEMBL, read-out: IC50 (CysLT2)): 53 nM

Compound: O=C(O)CCCN1CC(C(=O)O)Oc2c(C=Cc3ccc(OCCCCOc4ccccc4)cc3)cccc21 (stereo not drawn) [CHEMBL3403187, C(CC(O)=O)CN1CC(C(O)=O)Oc2c(C=Cc3ccc(cc3)OCCCCOc3ccccc3)cccc12]
pAct [6]: 9.5

Compound: O=C(O)CCCc1cn(CC(=O)O)c2c(C=Cc3ccc(OCCCCOc4ccccc4)cc3)cccc12 [CHEMBL3597522, C(CC(O)=O)Cc1cn(CC(O)=O)c2c(C=Cc3ccc(cc3)OCCCCOc3ccccc3)cccc12]
pAct [6]: 8.2

Compound: O=C(O)CCCN1CC(C(=O)O)Oc2c(C=Cc3ccc(OCCCCc4ccccc4)cc3)cccc21 (stereo not drawn) [CHEMBL3401687, C(CCOc1ccc(C=Cc2cccc3c2OC(CN3CCCC(O)=O)C(O)=O)cc1)Cc1ccccc1]
pAct [6]: 8.2

Compound: O=C(O)CCCN1CC(c2nnn[nH]2)Oc2c(C=Cc3ccc(OCCCCc4ccccc4)cc3)cccc21 (stereo not drawn) [CHEMBL3403186, C(CCOc1ccc(C=Cc2cccc3c2OC(CN3CCCC(O)=O)c2nnn[nH]2)cc1)Cc1ccccc1]
pAct [6]: 8.5
pAct [7]: 9.2

Compound: COc1cc(C(=O)NS(=O)(=O)c2ccccc2C)ccc1Cc1cn(C)c2ccc(NC(=O)NC3CCCC3)cc12 [CHEMBL431348]
Kd ([7]; activity of the ligand from ChEMBL, ref ChEMBL, read-out: Kd (CysLT1)): 0.79 nM

% max inhibition ± SEM of constitutive IP1 accumulation [1]: 21 ± 10%
CysLT1R (LTC4) % Max Inhibition ± SEM [2]: 52 ± 9%
Ki [2]: 180 ± 30 nM
CysLT2R (LTC4) % Max Inhibition ± SEM [3]: 9 ± 5%
Ki [4]: 220 ± 30 nM
remaining activity at 30 µM [4]: 50.8%
inhibition at 30 µM [4]: ≥ 50%
Emax [4]: 71 ± 19%
extent of inhibition of LTD4-mediated response at CysLT1R (in words) [4]: partial antagonism
remaining activity at 30 µM [5]: 79.7%
inhibition at 30 µM [5]: < 50%
Emax [5]: 7 ± 5%
Compound: Cn1c(-c2ccc(NC(=O)c3cccc(OCC(=O)O)c3)cc2)nc2ccccc21 [BRI-12424]

Compound: O=C(O)CCCN1CC(C(=O)O)Oc2c(NC(=O)c3ccc(OCCCCCc4ccccc4)cc3)cccc21 (stereo not drawn) [CHEMBL3342959, C(CCc1ccccc1)CCOc1ccc(cc1)C(Nc1cccc2c1OC(CN2CCCC(O)=O)C(O)=O)=O]
pAct [6]: 9.2

Compound: O=C(O)CCCN1CC(C(=O)NS(=O)(=O)c2ccccc2)Oc2c(NC(=O)c3ccc(OCCCCc4ccccc4)cc3)cccc21 (stereo not drawn) [CHEMBL3401691, C(CCOc1ccc(cc1)C(Nc1cccc2c1OC(CN2CCCC(O)=O)C(NS(c1ccccc1)(=O)=O)=O)=O)Cc1ccccc1]
pAct [6]: 8.2

Compound: O=C(O)CCCN1C[C@@H](C(=O)O)Oc2c(NC(=O)c3ccc(OCCCCc4ccccc4)cc3)cccc21 [CHEMBL3342964, C(CCOc1ccc(cc1)C(Nc1cccc2c1O[C@@H](CN2CCCC(O)=O)C(O)=O)=O)Cc1ccccc1]
pAct [6]: 9.1

Compound: CCCCCC=CCC=CC=CC=C[C@@H](SC[C@H](N)C(=O)NCC(=O)O)[C@@H](O)CCCC(=O)O [CHEMBL288943, CCCCCC=CCC=CC=CC=C[C@H]([C@H](CCCC(O)=O)O)SC[C@@H](C(NCC(O)=O)=O)N]
pAct [7]: 9.5

Compound: O=C(Nc1cccc2c(=O)cc(-c3nn[nH]n3)oc12)c1ccc(OCCCCc2ccccc2)cc1 [CHEMBL21333, C(CCOc1ccc(cc1)C(Nc1cccc2C(C=C(c3nn[nH]n3)Oc12)=O)=O)Cc1ccccc1]
pAct [7]: 9.1

Compound: O=C(O)CCCN1CC(c2nn[nH]n2)Oc2c(NC(=O)c3ccc(OCCCCc4ccccc4)cc3)cccc21 (stereo not drawn) [CHEMBL3401689, C(CCOc1ccc(cc1)C(Nc1cccc2c1OC(CN2CCCC(O)=O)c1nn[nH]n1)=O)Cc1ccccc1]
pAct [6]: 9.3

Compound: Cc1c(Cl)cccc1CCCCOc1ccc(C#Cc2cccc3c(CCCC(=O)O)c(C)n(CC(=O)O)c23)cc1 [CHEMBL3597618, Cc1c(CCCCOc2ccc(C#Cc3cccc4c(CCCC(O)=O)c(C)n(CC(O)=O)c34)cc2)cccc1[Cl]]
pAct [7]: 9.7
